Experimental data as given in the supplement of paper PMC5579334.
± gives the standard deviation of the averaged measurements.

What was measured:
[1] = test system: HS-PSS; assay: drug sensitivity score (DSS, CellTiter-Glo viability, 72 h) (DSS (dimensionless)); higher = more sensitive; extreme values may be limits of the assay
Summary of the method: (§1)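 MPNST cell lines and primary human Schwann cells were seeded at 750–1000 cells per well into 384-well plates preprinted with each compound at five concentrations in 10-fold steps, then incubated 72 h at 37 °C, 5% CO2. CellTiter-Glo ATP luminescence gave viability, scaled between vehicle and positive-control wells, with duplicates averaged where present. Curves were fitted with a four-parameter logistic model. Percent inhibition refers to the top concentration, while drug sensitivity score and relative IC50, censored at the top concentration, come from these fits.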

[2] = test system: HS-Sch-2; assay: as above
Summary of the method: as §1

[3] = test system: HSC1 (primary human Schwann cells); assay: as above
Summary of the method: as §1

[4] = test system: HSC2 (primary human Schwann cells); assay: as above
Summary of the method: as §1

[5] = test system: S1507-2; assay: as above
Summary of the method: as §1

[6] = test system: S462; assay: as above
Summary of the method: as §1

[7] = test system: ST8814; assay: as above
Summary of the method: as §1

[8] = test system: STS26T; assay: as above
Summary of the method: as §1

[9] = test system: YST-1; assay: as above
Summary of the method: as §1

[10] = test system: HS-PSS; assay: drug sensitivity score (DSS, CellTox-Green cytotoxicity, 72 h) (DSS (dimensionless)); higher = more cytotoxic; extreme values may be limits of the assay
Summary of the method: (§2)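 For 72 h at 37 °C, MPNST cell lines and primary human Schwann cells were exposed in 384-well plates to five 10-fold compound dilutions. CellTox-Green, added before seeding at a final 1:1000 dilution, gave fluorescence from DNA released by disrupted cells. Signals were scaled to vehicle and positive-control wells, cultures failing plate quality control were left out, and four-parameter logistic fits were applied. Relative IC50 and drug sensitivity score were derived from the fits, with IC50 censored at the top concentration.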

[11] = test system: HSC1 (primary human Schwann cells); assay: as above
Summary of the method: as §2

[12] = test system: HSC2 (primary human Schwann cells); assay: as above
Summary of the method: as §2

[13] = test system: S1507-2; assay: as above
Summary of the method: as §2

[14] = test system: ST8814; assay: as above
Summary of the method: as §2

[15] = test system: STS26T; assay: as above
Summary of the method: as §2

[16] = test system: HS-PSS; assay: % inhibition of CellTiter-Glo viability at highest tested concentration (72 h), relative to DMSO and benzethonium chloride controls; higher = more inhibition
Summary of the method: as §1

[17] = test system: HS-Sch-2; assay: as above
Summary of the method: as §1

[18] = test system: HSC1 (primary human Schwann cells); assay: as above
Summary of the method: as §1

[19] = test system: HSC2 (primary human Schwann cells); assay: as above
Summary of the method: as §1

[20] = test system: S1507-2; assay: as above
Summary of the method: as §1

[21] = test system: S462; assay: as above
Summary of the method: as §1

[22] = test system: ST8814; assay: as above
Summary of the method: as §1

[23] = test system: STS26T; assay: as above
Summary of the method: as §1

[24] = test system: YST-1; assay: as above
Summary of the method: as §1

Row | Structure (SMILES) | drug sensitivity score [1] | drug sensitivity score [2] | drug sensitivity score [3] | drug sensitivity score [4] | drug sensitivity score [5] | drug sensitivity score [6] | drug sensitivity score [7] | drug sensitivity score [8] | drug sensitivity score [9] | drug sensitivity score [10] | drug sensitivity score [11] | drug sensitivity score [12] | drug sensitivity score [13] | drug sensitivity score [14] | drug sensitivity score [15] | % inhibition [16] | % inhibition [17] | % inhibition [18] | % inhibition [19] | % inhibition [20] | % inhibition [21] | % inhibition [22] | % inhibition [23] | % inhibition [24]
1 | CCN1CCN(c2ccc(Nc3cc(N(C)C(=O)Nc4c(Cl)c(OC)cc(OC)c4Cl)ncn3)cc2)CC1 [NVP-BGJ398] (max concentration tested 1000 nM) | 0 | 0 | 0 | 0 | 0.00445 ± 0.0063 | 0 | 0.135 | 0 | 0 | 0 | 0 | 0 | 0.143 ± 0.2 | 0 | 0 | 9.97% | 0.34% | 4.11% | 5.81% | 6.59 ± 6.9% | 0.872 ± 0.61% | 14.3% | -2.71% | 2.47%
2 | CC1(C)CCC(c2ccc(Cl)cc2)=C(CN2CCN(c3ccc(C(=O)NS(=O)(=O)c4ccc(N[C@H](CCN5CCOCC5)CSc5ccccc5)c(S(=O)(=O)C(F)(F)F)c4)cc3)CC2)C1 [Navitoclax] (max concentration tested 10000 nM) | 0 | 3.94 | 2.32 | 5.16 | 6.14 ± 0.43 | 0.978 ± 0.8 | 0.561 | 0.0007 | 4.22 | 0 | 5.42 | 11.8 | 16 ± 1.1 | 5.52 | 3.15 | 3.02% | 32.7% | 23.8% | 53.1% | 47.8 ± 0.54% | 20.7 ± 5.9% | 24.4% | 11.3% | 34.2%
3 | COc1nc(N)nc2c1ncn2[C@@H]1O[C@H](CO)[C@@H](O)[C@@H]1O [Nelarabine] (max concentration tested 10000 nM) | 0 | 0 | 0 | 0 | 1.62 ± 2.3 | 0 | 0 | 0 | 0 | 0 | 0 | 0.0142 | 3.71 ± 5.2 | 0 | 0 | -6.14% | 6.44% | 1.53% | 4.25% | 7.84 ± 7.8% | 8.35 ± 0.2% | -1.03% | 6.48% | -10.9%
4 | CCOc1cc2ncc(C#N)c(Nc3ccc(OCc4ccccn4)c(Cl)c3)c2cc1NC(=O)/C=C/CN(C)C [Neratinib] (max concentration tested 1000 nM) | 6.05 | 5.51 | 4.77 | 5.85 | 4 ± 1.6 | 5.12 ± 0.93 | 3.74 | 3.09 | 2.34 | 0 | 0 | 0 | 0 | 0 | 0 | 65.7% | 65.3% | 70.6% | 75.8% | 49.1 ± 15% | 64.8 ± 7.9% | 40.5% | 38.6% | 46.7%
5 | Cc1cn(-c2cc(NC(=O)c3ccc(C)c(Nc4nccc(-c5cccnc5)n4)c3)cc(C(F)(F)F)c2)cn1 [Nilotinib] (max concentration tested 10000 nM) | 1.65 | 3.88 | 0 | 0 | 0 | 0 | 0 | 0 | 1.13 | 0 | 0 | 0.117 | 0 | 0 | 0 | 23.5% | 15.4% | 0.687% | 2.6% | 2.99 ± 0.13% | -3.63 ± 4.4% | -12.2% | -1.55% | 20.6%
6 | CC1(C)NC(=O)N(c2ccc([N+](=O)[O-])c(C(F)(F)F)c2)C1=O [Nilutamide] (max concentration tested 10000 nM) | 0 | 0.51 | 0.162 | 0 | 0 | 0 | 0 | 0 | 0 | 0 | 0 | 0 | 0 | 0 | 0 | 8.31% | 18.2% | 9.41% | 9.17% | 7.48 ± 3.5% | 6.29 ± 2.4% | -1.67% | 7.4% | -2.31%
7 | COC(=O)c1ccc2c(c1)NC(=O)/C2=C(\Nc1ccc(N(C)C(=O)CN2CCN(C)CC2)cc1)c1ccccc1 [Nintedanib] (max concentration tested 10000 nM) | 1.83 | 2.94 | 0 | 0 | 0 | 0 | 0 | 0 | 3.79 | 0.43 | 0 | 0 | 0 | 0 | 0 | 45.7% | 63.5% | 0.553% | -4.16% | -3.03 ± 4% | -7.48 ± 1.2% | 2.22% | 2.06% | 39.7%
8 | COc1ccc(C2=N[C@@H](c3ccc(Cl)cc3)[C@@H](c3ccc(Cl)cc3)N2C(=O)N2CCNC(=O)C2)c(OC(C)C)c1 [Nutlin-3] (max concentration tested 10000 nM) | 1.69 | 0 | 5.97 | 7.69 | 0.283 ± 0.4 | 0 | 4.66 | 0.0084 | 9.36 | 0 | 0 | 0 | 1.97 ± 2.8 | 0.0128 | 0 | 24.9% | 1.38% | 62.4% | 71.8% | 7.98 ± 12% | 5.05 ± 4.8% | 59.7% | 12.2% | 94.8%
9 | COc1cccc2cc(-c3nc([C@H]4CC[C@H](C(=O)O)CC4)n4ncnc(N)c34)[nH]c12 [OSI-027] (max concentration tested 10000 nM) | 0.84 | 2.33 | 10.7 | 8.56 | 8.32 ± 1 | 7.41 ± 0.52 | 5.6 | 4.45 | 9.46 | 0 | 0 | 0 | 2.04 ± 1.4 | 0 | 0 | 26.6% | 49.1% | 84.8% | 80.9% | 64.4 ± 4.5% | 58.2 ± 2.5% | 53% | 53.1% | 78%
10 | COC1=CC(c2cc3ccccc3[nH]2)=N/C1=C\c1[nH]c(C)cc1C [Obatoclax] (max concentration tested 10000 nM) | 2.94 | 2.53 | 8.07 | 8.2 | 7.89 ± 1.2 | 7.25 ± 0.51 | 5.7 | 5.87 | 2.23 | 0 | 4.21 | 2.43 | 5.25 ± 0.56 | 4.99 | 3.1 | 39.5% | 31.2% | 80.1% | 81.8% | 95.5 ± 2% | 89.3 ± 2.9% | 93.7% | 81.5% | 25.6%
11 | O=C(c1cc(Cc2n[nH]c(=O)c3ccccc23)ccc1F)N1CCN(C(=O)C2CC2)CC1 [Olaparib] (max concentration tested 10000 nM) | 1.4 | 2.98 | 3.07 | 3.8 | 1.07 ± 0.15 | 4.85 ± 0.63 | 1.85 | 3.17 | 10.2 | 0 | 0 | 0.201 | 0.075 ± 0.11 | 1.56 | 1.04 | 23.2% | 32.8% | 38.1% | 39.3% | 25.7 ± 8.5% | 61.15 ± 0.35% | 41.6% | 46.3% | 69%
12 | COC(=O)C[C@](O)(CCCC(C)(C)O)C(=O)O[C@@H]1C(OC)=C[C@]23CCCN2CCc2cc4c(cc2[C@H]13)OCO4 [Omacetaxine] (max concentration tested 10000 nM) | 23.1 | 26 | 25.4 | 26.6 | 25.33 ± 0.068 | 31.4 ± 0.81 | 25.2 | 27.9 | 36.4 | 1.24 | 8.49 | 11.7 | 13.4 ± 3 | 5 | 15 | 80.3% | 102% | 92% | 96.2% | 98.539 ± 0.044% | 99.121 ± 0.0091% | 88.6% | 98.6% | 99.5%
13 | C=CCc1cccc(/C=N/NC(=O)CN2CCN(Cc3ccccc3)CC2)c1O [PAC-1] (max concentration tested 10000 nM) | 6.09 | 10.1 | 6.29 | 8.57 | 2.43 ± 0.66 | 3.7 ± 0.048 | 3.36 | 3.59 | 4.81 | 2.32 | 0 | 0 | 0 | 0.202 | 0 | 84.3% | 91.1% | 75.5% | 85.9% | 52.7 ± 7.1% | 73.6 ± 1.1% | 57.7% | 54.6% | 69.4%
